Where a name gives a salt, the structure may show the parent alone. Read-outs that look alike come from different tables or passages of the source.
Key:
[1] = system: E. coli S30 extract (bacterial protein synthesis); assay: E. coli S30 extract coupled transcription-translation luciferase assay (inhibition of bacterial protein synthesis); assay type: biochemical; settings: read-out: S30 IC50 (μM/% inhib.)
Procedure, shortened: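 Cell-free coupled transcription-translation in E. coli S30 circular-DNA extract, with pBESTluc plasmid as template and complete amino acid mix. Eight 2-fold compound dilutions were incubated with the extract 1 h at 37 °C, chilled, then luciferase luminescence was read. % inhibition was taken relative to no-inhibitor wells; no-DNA wells gave background.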

[2] = target: Rabbit Reticulocyte Lysate (eukaryotic protein synthesis); assay: Rabbit reticulocyte lysate luciferase assay (inhibition of eukaryotic protein synthesis); assay type: biochemical; settings: read-out: Rabbit reticulocyte IC50 (μM/% inhib.)
Procedure, shortened: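 Nuclease-treated rabbit reticulocyte lysate translating luciferase control RNA, with complete amino acids, was incubated at 30° C. for 90 minutes with 2-fold serial compound dilutions. Luminescence was measured after adding luciferase reagent. % inhibition was relative to water controls, with no-RNA wells as background.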

P. aeruginosa (Pa) = assay: Broth microdilution minimum inhibitory concentration (MIC); assay type: cell-based; settings: Pseudomonas aeruginosa, P. aeruginosa, read-out: Pa MIC + bicarb
Procedure: (§1) A certified BSL-2 laboratory was used for testing. Compounds were evaluated using the broth microdilution minimum inhibitory concentration (MIC) and minimum bactericidal concentration (MBC) assays defined by Clinical and Laboratory Standards Institute (CLSI) in the M26-A guideline against S. aureus (Sa), E. coli (Ec), K. pneumoniae (Kp), A. baumannii (Ab), E. faecalis (Ef) and P. aeruginosa (Pa).
(§2) MICs were determined using the Clinical Laboratory and Standards Institute (CLSI) Broth Microdilution Method with slight modification. Clinical and Laboratory Standards Institute (2012). “Methods for dilution antimicrobial susceptibility tests for bacteria that grow aerobically; approved standard, 9th ed. M07-A9. Clinical and Laboratory Standards Institute, Wayne, PA” Serial two-fold dilutions of compounds are prepared in sterile clear round-bottom 96-well plates.
(§3) To prepare microdilution trays, two-fold dilutions of antimicrobial agent are prepared in growth medium: Cation-Adjusted Mueller-Hinton Broth (CAMHB), or CAMHB supplemented with sodium bicarbonate (6.25 or 25 mM final concentration prepared from a 1.0M stock solution) or CAMHB supplemented with heat inactivated human serum (Fisher Cat. #BP2657100) 0-50% by adding 200 μL of the highest concentration to be tested (64 μg/mL, for example) in row A, mixing and transferring 100 μL from row A to 100 μL growth medium in row B, then repeating the mixing and transferring through row H of the 96-well plate, discarding the excess 100 μL remaining. This slight modification to the CLSI protocol enables evaluation of MICs for 3 compounds per plate in triplicate, albeit with only 8 compound dilutions (CLSI protocol enables 2 compounds in triplicate with 10 dilutions). Bacterial suspensions are added to a final concentration of 5×10^4 CFU/well by adding 5 μL of a 1:10 dilution of a 0.5 McFarland suspension (1×10^8 CFU/mL) for each bacterium evaluated. Bacterial suspensions were prepared using the growth method described by CLSI. Well-isolated colonies (3-5 from an agar plate) were selected using a sterile loop and used to inoculate a tube containing 4 mL of CAMHB. The cultures are incubated at 35±2° C. until it achieves or exceeds the turbidity of the 0.5 McFarland standard, determined by measuring A600nm (usually two to six hours). When growth exceeds a 0.5 McFarland standard, the turbidity is adjusted with broth to be equivalent to a 0.5 McFarland standard.

E. coli (Ec) = assay: as above; assay type: cell-based; settings: Escherichia coli, read-out: E. coli + bicarb MIC
Procedure: as §1, §2, §3

A. baumannii (Ab) = assay: as above; assay type: cell-based; settings: Acinetobacter baumannii, A. baumannii, read-out: Ab + bicarb MIC
Procedure: as §1, §2, §3

E. faecalis (Ef) = assay: as above; assay type: cell-based; settings: Enterococcus faecalis, E. faecalis; growth medium supplemented with sodium bicarbonate; read-out: Ef + bicarb MIC
Procedure: as §1, §2, §3

[3] = class by IC50 or % inhibition @ 1 μM
[4] = growth medium supplemented with sodium bicarbonate
[5] = E. coli, growth medium supplemented with sodium bicarbonate
[6] = E. coli, growth medium with sodium bicarbonate
[7] = growth medium with sodium bicarbonate

| Structure (SMILES) | IC50 [1, 3] [µM] | IC50 [2, 3] [µM] | MIC (P. aeruginosa (Pa); [4]) [µg/mL] | MIC (E. coli (Ec); [5]) [µg/mL] | MIC (A. baumannii (Ab); [4]) [µg/mL] | MIC (E. coli (Ec); [6]) [µg/mL] | further results |
| --- | --- | --- | --- | --- | --- | --- | --- |
| CC(C)(N)C(=O)N1CCN(C(=O)Nc2ccn(-c3cccc(CCN4CCC(N)CC4)c3)c(=O)n2)CC1 [Compound 2] | < 0.5 | > 1 | > 32 | 8 to 32 |  |  |  |
| C[C@](N)(CO)C(=O)N1CCN(C(=O)Nc2ccn(-c3ccc(CCN4CCC[C@@H](N)C4)cc3)c(=O)n2)CC1 [Compound 12] | 0.5 to 1 | > 1 | > 32 | > 32 | > 32 |  |  |
| C[C@@H]1CN(CCc2ccc(-n3ccc(NC(=O)N4CCN(C(=O)C(C)(C)N)CC4)nc3=O)cc2)CC[C@H]1N [Compound 41] | < 0.5 | > 1 |  |  | > 32 |  | MIC (E. faecalis (Ef)): 8 to 32 µg/mL |
| CC(N)[C@@H]1CCN(Cc2ccc(-n3ccc(NC(=O)N4CCN(C(=O)C(C)(C)N)CC4)nc3=O)cc2)C1 (stereo partly drawn) [Compound 44] | < 0.5 | > 1 |  |  | > 32 |  | MIC (E. faecalis (Ef)): < 8 µg/mL |
| CC(N)[C@H]1CCN(Cc2ccc(-n3ccc(NC(=O)N4CCN(C(=O)C(C)(C)N)CC4)nc3=O)cc2)C1 (stereo partly drawn) [Compound 45] | < 0.5 | > 1 |  |  | > 32 |  | MIC (E. faecalis (Ef)): < 8 µg/mL |
| NC1CCN(Cc2ccc(-n3ccc(NC(=O)N4CC(N)C4)nc3=O)cc2)CC1 [Compound 49] | > 1 | > 1 | > 32 | > 32 | > 32 |  |  |
| C[C@H]1CN(C(=O)C(C)(C)N)CCN1C(=O)Nc1ccn(-c2ccc(CN3CCC(N)CC3)cc2)c(=O)n1 [Compound 56] | < 0.5 | > 1 | > 32 | < 8 |  |  |  |
| CC(C)(N)C(=O)N1CCN(C(=O)Nc2ccn(-c3ccc(CN4CCC(N)CC4)cc3)c(=O)n2)C(c2ccccc2)C1 (stereo not drawn) [Compound 59] | > 1 | > 1 | > 32 | > 32 | > 32 |  |  |
| CC(C)(N)C(=O)N1CCN(C(=O)Nc2ccn(-c3ccc(CN4CCC(N)CC4)cc3)c(=O)c2)[C@H](C(=O)O)C1 [Compound 64] | < 0.5 | > 1 | > 32 | > 32 |  |  |  |
| C[C@@H]1CN(C(=O)Nc2ccn(-c3ccc(CN4CCC(CN)CC4)cc3)c(=O)n2)CCN1C(=O)C(C)(C)N [Compound 65] | < 0.5 | > 1 | > 32 | < 8 |  |  |  |
| C[C@@H]1CN(C(=O)Nc2ccn(-c3ccc(CN4CCC(N)CC4)cc3)c(=O)n2)[C@@H](C)CN1C(=O)C(C)(C)N [Compound 74] |  | > 1 | > 32 | > 32 | > 32 |  |  |
| CC(C)(N)C(=O)N1CCN(C(=O)Nc2ccn(-c3ccc(CN4CCC(N)CC4)c(Cl)c3)c(=O)n2)CC1 [Compound 99] | < 0.5 | > 1 | > 32 | < 8 |  |  |  |
| C[C@](N)(CO)C(=O)N1CCN(C(=O)Nc2ccn(-c3cc(CN4CCC(N)CC4)cc(OC(F)(F)F)c3)c(=O)n2)CC1 [Compound 103] | > 1 | > 1 |  | > 32 | > 32 |  |  |
| CC(C)(N)C(=O)N1CCN(C(=O)Nc2ccn(-c3ccc(CN4CCCCC(N)C4)cc3)c(=O)n2)CC1 (stereo not drawn) [Compound 240] | 0.5 to 1 | > 1 |  |  |  | > 32 |  |
| CC(C)(N)C(=O)N1CCN(C(=O)Nc2ccn(-c3ccc(CN4CC[C@H](N)C4)cc3)c(=O)n2)CC1 [Compound 241] | < 0.5 | > 1 |  |  |  | 8 to 32 |  |
| CC(C)(N)C(=O)N1CCN(C(=O)Nc2ccn(-c3ccc(CN4CC(N)C4)cc3)c(=O)n2)CC1 [Compound 244] | > 1 | > 1 |  |  |  | < 8 |  |
| CC1(N)CCCN(Cc2ccc(-n3ccc(NC(=O)N4CCN(C(=O)C(C)(C)N)CC4)nc3=O)cc2)C1 (stereo not drawn) [Compound 246] | > 1 | > 1 |  |  |  | < 8 |  |
| CC(C)(N)C(=O)N1CCN(C(=O)Nc2ccn(-c3ccc(CN4CCC(F)(CN)CC4)cc3)c(=O)n2)CC1 [Compound 248] | < 0.5 | > 1 |  |  |  | < 8 |  |
| CNC1CCN(Cc2ccc(-n3ccc(NC(=O)N4CCN(C(=O)C(C)(C)N)CC4)nc3=O)cc2)CC1 [Compound 250] | < 0.5 | > 1 |  |  |  | < 8 |  |
| CC1CC(N)CCN1Cc1ccc(-n2ccc(NC(=O)N3CCN(C(=O)C(C)(C)N)CC3)nc2=O)cc1 (stereo not drawn) [Compound 252] | < 0.5 | > 1 |  |  |  | < 8 |  |
| CC(C)(N)C(=O)N1CCN(C(=O)Nc2ccn(-c3ccc(CN4CCC(C(C)(C)N)CC4)cc3)c(=O)n2)CC1 [Compound 253] | < 0.5 | > 1 |  |  |  | < 8 |  |
| CC1(N)CCCN(Cc2ccc(-n3ccc(NC(=O)N4CCN(C(=O)C(C)(C)N)CC4)nc3=O)cc2)CC1.Cl (stereo not drawn) [Compound 255] | < 0.5 | > 1 |  |  |  | < 8 |  |
| CC(C)(N)C(=O)N1CCN(C(=O)Nc2ccn(-c3ccc(CN4CC[C@@H](N)C(O)C4)cc3)c(=O)n2)CC1 (stereo partly drawn) [Compound 267] | < 0.5 | > 1 |  |  |  | < 8 |  |
| CC(Cc1ccc(-n2ccc(NC(=O)N3CCN(C(=O)C(C)(C)N)CC3)nc2=O)cc1)NCC1CNC1 (stereo not drawn) [Compound 346, hydrochloride salt] |  | > 1 |  |  |  |  | IC50 ([1]; class by IC50 or % inhibition @ 1 μM, hydrochloride salt): 0.5 to 1 µM; MIC (E. coli (Ec)): > 32 µg/mL |
| CC(C)(N)C(=O)N1CCN(C(=O)Nc2ccn(-c3ccc(CNCC4(O)CNC4)cc3)c(=O)n2)CC1 [Compound 376] |  |  |  |  |  | < 8 | IC50 ([1]; % inhibition @ 1 μM): < 0.5 µM; IC50 ([2]; % inhibition @ 1 μM): > 1 µM; MIC (P. aeruginosa (Pa); [7]): > 32 µg/mL; MIC (A. baumannii (Ab); [7]): > 32 µg/mL |
| C[C@](N)(CO)C(=O)N1CCN(C(=O)Nc2ccn(-c3ccc(CCN4CCCC(N)CC4)cc3)c(=O)n2)CC1 (stereo partly drawn) [Compound 381] |  |  |  |  |  | < 8 | IC50 ([1]; % inhibition @ 1 μM): < 0.5 µM; IC50 ([2]; % inhibition @ 1 μM): > 1 µM |
